Experiments:
[1] = system: Hep3B cell; test: Toxicity test of drugs, Hep3B cell cultured in microarray cell chip (3D alginate culture on the chip); format: cell-based; conditions: read-out: IC50 (concentration of drug when 50% of cells shows the growth inhibition), Cell chip according to Invention (3D Hep3B cell culture on the chip); 3D Hep3B cell culture in alginate on the chip; drug cultured for a day; calcein AM / ethidium homodimer-1 staining
Description: The mixture of the alginate-Hep3B cell line primarily combined the upper substrate 100 formed on the spacer with the lower substrate 200 having 800 nl of culture medium in the well 210 to gelate the alginate, thereby removing the extra barium chloride. The upper substrate 100 is separated after removing the extra barium chloride and again combines with the lower substrate 200 having 800 nl of new culture medium in the well 210, thereby culturing the Hep3B cell.
After the culture ends, the Hep3B cell existing on the upper substrate 100 was dyed with the fluorescent material (calcein AM and ethidium homodimer-1).

[2] = system: Hep3B cell; test: Toxicity test of drugs, Hep3B cell cultured in microtiter plate (2D monolayer in 96-wells); format: cell-based; conditions: read-out: IC50 (concentration of drug when 50% of cells shows the growth inhibition), Microtiter Plate (2D Hep3B cell monolayer in 96-wells), drug cultured for a day
Text: The values shown in the above Table were obtained based on the results of culturing the drug for a day, dying it immediately after the culturing, and scanning it.

Cc1ccc(C(=O)c2cc(O)c(O)c([N+](=O)[O-])c2)cc1 [Tolcapone]
IC50 [1]: 171 µM | IC50 [2]: 50 µM

CCN(CC)C(=O)/C(C#N)=C/c1cc(O)c(O)c([N+](=O)[O-])c1 [Entacapone]
IC50 [1]: 381 µM | IC50 [2]: 850 µM

CCN(CC)CCCC(C)Nc1ccnc2cc(Cl)ccc12 (stereo not drawn) [Chliroquine, Chloroquine]
IC50 [2]: 50 µM

O=C(O)Cc1ccccc1Nc1c(Cl)cccc1Cl [Diclofenac]
IC50 [1]: 375 µM | IC50 [2]: 230 µM

CO[C@@]12[C@H](COC(N)=O)C3=C(C(=O)C(C)=C(N)C3=O)N1C[C@@H]1N[C@@H]12 [Mitomycin C]
IC50 [1]: 124 µM | IC50 [2]: 40 µM

From US20140011711A1, “MICROARRAY CELL CHIP” (Solidus Biosciences, Inc., priority 2010, published 2014)
